Data: patent US20120035356A1, “Hydroxycarboxylic Acids and Salts” (priority 2006, published 2012)
Read-outs that look alike come from different tables or passages of the source.

How the values were obtained:
[1] = cited from earlier work
[2] = Corrosion test NACE TM0169-95 modified by PNS, steel coupons in 3% NaCl solution; design: Percent Effectiveness: scale not given: direction of the effect not stated beside the values; settings: Table 1; for Corrosion rate MPY: 72 h; for Percent Effectiveness: NaCl control 100%, water 0%, lower is better, 30% or less acceptable (PNS); for Corrected corrosion rate MPY^1: distilled water MPY subtracted
Experimental: Corrosion tests were performed according to the National Association of Corrosion Engineers (NACE) Standard TM0169-95 modified by the Pacific Northwest Snowfighters (PNS) (NACE TM0169-95).
The test procedure was modified to use 30 mL of a 3% solution of inhibitor per square inch of total coupon surface area. Stamped and numbered steel TSI coupons which met the ASTM F436 Type 1 requirement with a Rockwell hardness of C 38-45 were used for each corrosion test. Approximate coupon dimensions are 1.37 in. outer diameter, 0.60 in. inner diameter, and 0.10 in. thickness with a density of 7.85 grams per cubic centimeter. Coupons were placed in a sealed container on a rock tumbler with a non-abrasive cleanser for 30 minutes to remove surface grease and impurities. Coupons were wiped with acetone to remove any additional grease, rinsed with deionized water, and then acid etched with an 18.5% HCl solution for approximately 3 minutes. The coupons were rinsed with tap water, rinsed with deionized water, patted dry and placed in chloroform for 15 minutes. The coupons were removed from chloroform and allowed to air dry in a ventilated hood for 1 hour. Each coupon was then weighed to the nearest 0.1 mg. at least two times to ensure a consistent weight.
Distilled water was used to prepare each solution and control standard. Sodium chloride was used as the salt standard. A 3% solution of NaCl (EMD, analyzed reagent grade, 9.6 g) in distilled water (310.4 g) was prepared as a salt standard (w/v). Each test solution was prepared with 3% NaCl, 310.4 g distilled water, and a corrosion inhibitor. Two NaCl salt solutions containing each inhibitor were prepared at 3% and 1.5% inhibitor concentration (by weight of salt, 288 mg and 144 mg, respectively). Approximately 300 mL of each solution in distilled water was transferred to a clean 500 mL Erlenmeyer flask equipped with a rubber stopper which had been drilled to allow a thin line attached to a plastic rod to run through it. The pH of each solution was measured and recorded. Aqueous 5% sodium hydroxide was carefully added (1-2 drops) until a basic pH was established for each test solution. The pH of the NaCl and H2O control solutions was not altered. Three coupons were attached to a plastic bar suspended within each flask through the stopper hole. A timed device raised and lowered the test coupons so they were immersed in the test solution for 10 minutes of each hour for a 72 hour period. Tests were conducted at room temperature.
After the 72 h. test period, the coupons were quickly removed from solution, rinsed under tap water and vigorously rubbed to remove any surface corrosion material. The coupons were then placed in shallow evaporating dishes containing a cleaning solution of concentrated hydrochloric acid, stannous chloride (50 g/liter), and antimony chloride (20 g/liter) for 15 minutes. The coupons were removed from the acid solution, rinsed vigorously under tap water, and returned to the cleaning solution for an additional 15 minutes. The coupons were again removed from the acid solution, rinsed under tap water, rinsed under deionized water, patted dry, and placed in a vessel containing chloroform for 10 minutes. The coupons were removed from the chloroform and allowed to air dry under a ventilated hood for 1 hour before being weighed to the nearest 0.1 mg. Each coupon was weighed twice to ensure a true final weight. Corrosion rate in mils per year (MPY) was calculated from the measured weight loss of each coupon using the following equation: […]
The corrosion value for the control solution of distilled H2O was also calculated. The MPY value of the distilled water was subtracted from the MPY value of each sample solution containing 3% NaCl to provide a corrected MPY value, which is noted as MPY′.

Water solubility = type: physicochemical; settings: at the higher pH
[3] = 1.5 weight % inhibitor in 3% NaCl, room temperature, >pH 8 except sodium D-gluconate (pH 6.1)
[4] = 1.5 weight % inhibitor in 3% NaCl
[5] = 3.0 weight % inhibitor in 3% NaCl, >pH 8 except sodium D-gluconate (pH 6.1) and commercial liquid gluconate product (pH 3.2)
[6] = 3.0 weight % inhibitor in 3% NaCl

SMILES	water solubility (in words) [1]	Corrosion rate MPY [2, 3]	Percent Effectiveness [2, 4]	Corrected corrosion rate MPY^1 [2, 4]	Corrosion rate MPY [2, 5]	Percent Effectiveness [2, 6]	Corrected corrosion rate MPY^1 [2, 6]	water solubility (Water solubility)	further results
O=C([O-])[C@@H](O)[C@@H](O)[C@H](O)[C@@H](O)C(=O)[O-].[K+].[K+] [dipotassium D-glucarate hydrate, dipotassium D-glucarate]	readily soluble in water	–	–	–	–	–	–	–	–
O=C([O-])[C@@H](O)[C@@H](O)[C@H](O)[C@@H](O)C(=O)[O-].[Ca+2] [calcium D-glucarate]	very insoluble in water	–	–	–	–	–	–	–	–
O=C(O)[C@@H](O)[C@@H](O)[C@H](O)[C@@H](O)C(=O)[O-].[K+] [Sample III, monopotassium D-glucarate]	–	–	–	–	–	–	–	–	water solubility [1]: about 10%; Water reduction (% of control) (Type A (water reducing) trial, admixture dose 2.4-2.5 oz/cwt): 5.04 % of control; Compressive Strength (% of control) (Type A trial, 7 days): (125%) % of control; Water reduction (% of control) (Type D (water reducing/set retarding) trial, admixture dose 2.9-5.0 oz/cwt): 5.04 % of control; Compressive Strength (% of control) (Type D trial, 7 days): (117%) % of control; Compressive Strength (% of control) (Type D trial, 28 days): (118%) % of control
O=C([O-])[C@H](O)[C@@H](O)[C@H](O)[C@H](O)CO.[Na+] [sodium D-gluconate, reference compound]	–	24.596 MPY	36.98%	20.313 MPY	22.786 MPY	33.45%	18.503 MPY	ca. 60%	Percent Effectiveness ([2]; 3.0 weight % inhibitor in 3% NaCl, listed as gluconate): > 30%
O=C([O-])[C@@H](O)[C@@H](O)[C@H](O)[C@@H](O)C(=O)[O-].[K+].[Na+] [sodium potassium D-glucarate]	readily soluble in water	23.726 MPY	35.28%	19.443 MPY	20.939 MPY	29.84%	16.656 MPY	ca. 70%	Percent Effectiveness ([2]; 3.0 weight % inhibitor in 3% NaCl, listed as glucarate): ~30%
